The values that follow come from patent US9969726B2, “Metabotropic glutamate receptor negative allosteric modulators (NAMS) and uses thereof” (Sanford-Burnham Medical Research Institute, priority 2014, dated 2018).

By EC50 is commonly meant the concentration needed to bring the measured effect to its halfway point.

One experiment has as its target rat mGlu2 receptor (Rattus norvegicus (Rat), UniProt P31421). The experiment in a line: mGlu2 in vitro GIRK thallium flux assay. The settings on record: NAM, EC80 glutamate, HEK-293 GIRK cells. It counts as cell-based. The method, boiled down:
(§1)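 Cells expressing rat mGlu2 or mGlu3 with GIRK, plated overnight at 37 °C. Test compounds (0.3% DMSO, 10-point 1:3 series) preincubated 2.5 or 60 min, then thallium buffer plus EC80 glutamate added. Fluorescence slope 5–15 s after addition, normalised to vehicle and maximal agonist, fitted by four-parameter logistic.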

A further experiment addresses rat mGlu3 receptor (Rattus norvegicus (Rat), UniProt P31422). The experiment in a line: mGlu3 in vitro GIRK thallium flux assay. The class given is cell-based. The settings on record: NAM; 2.5 min compound incubation; EC80 glutamate; HEK-293 GIRK cells. The method, boiled down: as §1
The mark [1] stands for this setting: 2.5 min compound incubation, read-out: mGlu2 EC50 (μM) (2.5 min).
Setting [2] is: read-out: mGlu2 EC50 (μM) (60 min), 60 min compound incubation.

Read-outs that look alike come from different tables or passages of the source.

rat mGlu3 receptor, sequence (P31422 23-879): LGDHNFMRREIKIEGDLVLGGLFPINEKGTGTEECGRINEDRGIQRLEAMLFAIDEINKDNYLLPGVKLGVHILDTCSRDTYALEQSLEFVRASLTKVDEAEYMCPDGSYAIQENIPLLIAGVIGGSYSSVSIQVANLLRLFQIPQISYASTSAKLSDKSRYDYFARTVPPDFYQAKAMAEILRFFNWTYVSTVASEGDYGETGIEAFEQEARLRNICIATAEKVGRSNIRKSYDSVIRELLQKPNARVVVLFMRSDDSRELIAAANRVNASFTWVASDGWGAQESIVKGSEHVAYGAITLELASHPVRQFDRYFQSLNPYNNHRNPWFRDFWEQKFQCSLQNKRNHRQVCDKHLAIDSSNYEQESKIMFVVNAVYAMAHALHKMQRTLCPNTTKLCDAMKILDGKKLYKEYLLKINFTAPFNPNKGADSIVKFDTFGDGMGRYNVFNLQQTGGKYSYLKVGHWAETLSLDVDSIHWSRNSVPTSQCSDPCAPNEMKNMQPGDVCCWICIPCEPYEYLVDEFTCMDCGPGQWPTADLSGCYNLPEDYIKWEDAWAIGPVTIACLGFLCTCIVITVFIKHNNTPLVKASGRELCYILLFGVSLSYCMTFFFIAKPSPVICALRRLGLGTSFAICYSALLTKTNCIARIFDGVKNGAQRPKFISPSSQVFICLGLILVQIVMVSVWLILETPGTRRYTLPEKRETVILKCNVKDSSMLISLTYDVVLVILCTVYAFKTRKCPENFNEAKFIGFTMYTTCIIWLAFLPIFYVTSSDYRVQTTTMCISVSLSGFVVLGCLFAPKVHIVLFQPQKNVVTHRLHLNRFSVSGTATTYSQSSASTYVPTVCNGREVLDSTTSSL
rat mGlu2 receptor, sequence (P31421 19-872): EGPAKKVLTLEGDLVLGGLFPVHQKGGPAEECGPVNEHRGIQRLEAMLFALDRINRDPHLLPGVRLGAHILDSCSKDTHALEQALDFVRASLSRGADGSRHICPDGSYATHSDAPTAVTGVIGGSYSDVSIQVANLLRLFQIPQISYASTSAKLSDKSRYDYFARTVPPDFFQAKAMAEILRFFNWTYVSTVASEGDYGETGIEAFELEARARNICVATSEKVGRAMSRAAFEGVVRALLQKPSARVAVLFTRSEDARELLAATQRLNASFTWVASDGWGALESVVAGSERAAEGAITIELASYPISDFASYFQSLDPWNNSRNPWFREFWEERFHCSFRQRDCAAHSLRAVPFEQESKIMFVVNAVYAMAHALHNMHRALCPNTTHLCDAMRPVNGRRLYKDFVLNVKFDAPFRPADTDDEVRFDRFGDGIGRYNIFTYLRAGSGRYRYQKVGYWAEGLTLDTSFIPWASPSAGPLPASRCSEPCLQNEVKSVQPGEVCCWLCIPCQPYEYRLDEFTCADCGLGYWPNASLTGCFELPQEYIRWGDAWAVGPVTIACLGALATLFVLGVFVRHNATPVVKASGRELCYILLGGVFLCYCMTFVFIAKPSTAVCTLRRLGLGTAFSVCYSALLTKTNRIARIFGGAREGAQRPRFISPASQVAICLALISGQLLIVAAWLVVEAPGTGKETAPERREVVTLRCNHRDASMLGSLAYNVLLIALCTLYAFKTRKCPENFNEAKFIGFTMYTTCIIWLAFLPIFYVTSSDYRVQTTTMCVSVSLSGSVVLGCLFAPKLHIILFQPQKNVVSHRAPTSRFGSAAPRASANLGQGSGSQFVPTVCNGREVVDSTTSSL

`COc1ccc(-c2cccc(-c3nc(-c4ccco4)cc(C(F)(F)F)n3)c2)cc1C(=O)O` [Example 90, 3′-(4-(Furan-2-yl)-6-(trifluoromethyl)pyrimidin-2-yl)-4-methoxybiphenyl-3-carboxylic Acid]: the figures for the EC50 at rat mGlu2 receptor (setting [1]), at rat mGlu2 receptor (setting [2]) and at rat mGlu3 receptor were 3.68 µM, 2.49 µM and more than 10 µM, respectively.

Take `Cc1ccccc1-c1cc(C(F)(F)F)nc(-c2cccc(-c3ccc(F)c(C(=O)O)c3)c2)n1` [Example 91, 4-Fluoro-3′-(4-o-tolyl-6-(trifluoromethyl)pyrimidin-2-yl)biphenyl-3-carboxylic acid]: the half-maximal effective concentration (EC50) on rat mGlu2 receptor (setting [1]) is 1.52 µM; at rat mGlu2 receptor (setting [2]) it was 0.28 µM; on rat mGlu3 receptor, more than 10 µM.

As to `Cc1cccc(-c2cc(C(F)(F)F)nc(-c3cccc(-c4ccc(F)c(C(=O)O)c4)c3)n2)c1` [Example 92, 4-Fluoro-3′-(4-m-tolyl-6-(trifluoromethyl)pyrimidin-2-yl)biphenyl-3-carboxylic Acid], the EC50 on rat mGlu2 receptor (setting [1]) was 2.79 µM; at rat mGlu2 receptor (setting [2]), 0.4 µM; on rat mGlu3 receptor it was 3.37 µM.

Turning to `Cc1cc(C)cc(-c2cc(C(F)(F)F)nc(-c3cccc(-c4ccc(F)c(C(=O)O)c4)c3)n2)c1` [Example 93, 3′-(4-(3,5-Dimethylphenyl)-6-(trifluoromethyl)pyrimidin-2-yl)-4-fluorobiphenyl-3-carboxylic Acid], the EC50 on rat mGlu2 receptor (setting [1]) was more than 10 µM; on rat mGlu2 receptor (setting [2]), 1.6 µM; on rat mGlu3 receptor, more than 10 µM.

On to `O=C(O)c1cc(-c2cccc(-c3nc(/C=C/c4ccccc4)cc(C(F)(F)F)n3)c2)ccc1F` [Example 95, (E)-4-Fluoro-3′-(4-styryl-6-(trifluoromethyl)pyrimidin-2-yl)biphenyl-3-carboxylic Acid], for which the EC50 at rat mGlu2 receptor (setting [1]) and on rat mGlu3 receptor was more than 10 µM throughout.

As for `CC(C)(C)c1ccc(-c2cc(C(F)(F)F)nc(-c3cccc(-c4ccc(F)c(C(=O)O)c4)c3)n2)cc1` [Example 96, 3′-(4-(4-tert-Butylphenyl)-6-(trifluoromethyl)pyrimidin-2-yl)-4-fluorobiphenyl-3-carboxylic Acid], the values for the EC50 at rat mGlu2 receptor (setting [1]), at rat mGlu2 receptor (setting [2]) and on rat mGlu3 receptor were 5.38 µM, 1.08 µM and 6.11 µM, respectively.

`O=C(O)c1cc(-c2cccc(-c3nc(-c4cccnc4F)cc(C(F)(F)F)n3)c2)ccc1F` [Example 97, 4-Fluoro-3′-(4-(2-fluoropyridin-3-yl)-6-(trifluoromethyl)pyrimidin-2-yl)biphenyl-3-carboxylic Acid]: the concentration for a half-maximal effect (EC50) at rat mGlu2 receptor (setting [1]) came to 1.07 µM; at rat mGlu2 receptor (setting [2]) it was 0.36 µM; on rat mGlu3 receptor, 2.21 µM.

Take `O=C(O)c1cc(-c2cccc(-c3nc(-c4ccc(Cl)cc4)cc(C(F)(F)F)n3)c2)ccc1F` [Example 98, 3′-(4-(4-Chlorophenyl)-6-(trifluoromethyl)pyrimidin-2-yl)-4-fluorobiphenyl-3-carboxylic Acid]: the values for the EC50 at rat mGlu2 receptor (setting [1]), at rat mGlu2 receptor (setting [2]) and on rat mGlu3 receptor were 2.87 µM, 0.35 µM and 2.47 µM, respectively.

On to `COc1ccc(-c2cc(C(F)(F)F)nc(-c3cccc(-c4ccc(F)c(C(=O)O)c4)c3)n2)cc1OC` [Example 99, 3′-(4-(3,4-Dimethoxyphenyl)-6-(trifluoromethyl)pyrimidin-2-yl)-4-fluorobiphenyl-3-carboxylic Acid], for which the values for the EC50 at rat mGlu2 receptor (setting [1]), at rat mGlu2 receptor (setting [2]) and at rat mGlu3 receptor were more than 10 µM, 1.3 µM and 2.83 µM, respectively.

Consider `O=C(O)c1cc(-c2cccc(-c3nc(-c4ccccc4F)cc(C(F)(F)F)n3)c2)ccc1F` [Example 100, 4-Fluoro-3′-(4-(2-fluorophenyl)-6-(trifluoromethyl)pyrimidin-2-yl)biphenyl-3-carboxylic Acid], for which the values for the concentration giving a half-maximal response (EC50) at rat mGlu2 receptor (setting [1]), on rat mGlu2 receptor (setting [2]) and at rat mGlu3 receptor were 1.21 µM, 0.16 µM and 2.21 µM, respectively.

With `O=C(O)c1cc(-c2cccc(-c3nc(-c4cc5ccccc5o4)cc(C(F)(F)F)n3)c2)ccc1F` [Example 101, 3′-(4-(Benzofuran-2-yl)-6-(trifluoromethyl)pyrimidin-2-yl)-4-fluorobiphenyl-3-carboxylic Acid], the EC50 is more than 10 µM at rat mGlu2 receptor (setting [1]), 0.95 µM on rat mGlu2 receptor (setting [2]) and more than 10 µM on rat mGlu3 receptor.

Consider `O=C(O)c1cc(-c2cccc(-c3nc(-c4cc5ccccc5s4)cc(C(F)(F)F)n3)c2)ccc1F` [Example 102, 3′-(4-(Benzo[b]thiophen-2-yl)-6-(trifluoromethyl)pyrimidin-2-yl)-4-fluorobiphenyl-3-carboxylic Acid], for which the EC50 at rat mGlu2 receptor (setting [1]) came out at 3.33 µM; at rat mGlu2 receptor (setting [2]) it was 0.88 µM; at rat mGlu3 receptor, 3.12 µM.

Consider `CSc1ccc(-c2cc(C(F)(F)F)nc(-c3cccc(-c4ccc(F)c(C(=O)O)c4)c3)n2)cc1` [Example 103, 4-Fluoro-3′-(4-(4-(methylthio)phenyl)-6-(trifluoromethyl)pyrimidin-2-yl)biphenyl-3-carboxylic Acid], for which the EC50 at rat mGlu2 receptor (setting [1]) came to 4.69 µM; at rat mGlu2 receptor (setting [2]) it was 0.99 µM; on rat mGlu3 receptor, 4.54 µM.

In the case of `O=C(O)c1cc(F)cc(-c2cccc(-c3nc(-c4ccccc4)cc(C(F)(F)F)n3)c2)c1` [Example 104, 5-Fluoro-3′-(4-phenyl-6-(trifluoromethyl)pyrimidin-2-yl)biphenyl-3-carboxylic Acid], the EC50 was 1.44 µM at rat mGlu2 receptor (setting [1]), 0.24 µM on rat mGlu2 receptor (setting [2]) and 1.9 µM at rat mGlu3 receptor.

Consider `O=C(O)c1cc(-c2cccc(-c3nc(-c4cc(C(F)(F)F)cc(C(F)(F)F)c4)cc(C(F)(F)F)n3)c2)ccc1F` [Example 105, 3′-(4-(3,5-Bis(trifluoromethyl)phenyl)-6-(trifluoromethyl)pyrimidin-2-yl)-4-fluorobiphenyl-3-carboxylic Acid], for which the EC50 on rat mGlu2 receptor (setting [1]) is more than 10 µM; on rat mGlu2 receptor (setting [2]) it was 3.19 µM; on rat mGlu3 receptor it was more than 10 µM.

As for `O=C(O)c1cc(-c2cccc(-c3nc(-c4ccc[nH]4)cc(C(F)(F)F)n3)c2)ccc1F` [Example 106, 3′-(4-(1H-Pyrrol-2-yl)-6-(trifluoromethyl)pyrimidin-2-yl)-4-fluorobiphenyl-3-carboxylic Acid], the EC50 amounted to 1.19 µM on rat mGlu2 receptor (setting [1]), 1.42 µM at rat mGlu2 receptor (setting [2]) and 5.06 µM on rat mGlu3 receptor.

In the case of `O=C(O)c1cc(-c2cccc(-c3nc(-c4sccc4Cl)cc(C(F)(F)F)n3)c2)ccc1F` [Example 107, 3′-(4-(3-Chlorothiophen-2-yl)-6-(trifluoromethyl)pyrimidin-2-yl)-4-fluorobiphenyl-3-carboxylic Acid], the EC50 is 4.53 µM on rat mGlu2 receptor (setting [1]) and more than 10 µM on rat mGlu3 receptor.

With `O=C(O)c1cc(-c2cccc(-c3nc(-c4ccc(C(F)(F)F)cc4)cc(C(F)(F)F)n3)c2)ccc1F` [Example 108, 4-Fluoro-3′-(4-(trifluoromethyl)-6-(4-(trifluoromethyl)phenyl)pyrimidin-2-yl)biphenyl-3-carboxylic Acid], the EC50 at rat mGlu2 receptor (setting [1]) amounted to 1.5 µM; at rat mGlu3 receptor, 1.49 µM.

For the molecule `O=C(O)c1cc(-c2cccc(-c3nc(-c4nccs4)cc(C(F)(F)F)n3)c2)ccc1F` [Example 109, 4-Fluoro-3′-(4-(thiazol-2-yl)-6-(trifluoromethyl)pyrimidin-2-yl)biphenyl-3-carboxylic Acid], the values for the EC50 on rat mGlu2 receptor (setting [1]), at rat mGlu2 receptor (setting [2]) and at rat mGlu3 receptor were 1.34 µM, 0.297 µM and 2.13 µM, respectively.

For `O=C(O)c1cc(-c2cccc(-c3nc(-c4ccc(Cl)cc4F)cc(C(F)(F)F)n3)c2)ccc1F` [Example 110, 3′-(4-(4-Chloro-2-fluorophenyl)-6-(trifluoromethyl)pyrimidin-2-yl)-4-fluorobiphenyl-3-carboxylic Acid], the figures for the EC50 on rat mGlu2 receptor (setting [1]), at rat mGlu2 receptor (setting [2]) and on rat mGlu3 receptor were 4.08 µM, 0.65 µM and 5.34 µM, respectively.

With `Cc1noc(C)c1-c1cc(C(F)(F)F)nc(-c2cccc(-c3ccc(F)c(C(=O)O)c3)c2)n1` [Example 111, 3′-(4-(3,5-Dimethylisoxazol-4-yl)-6-(trifluoromethyl)pyrimidin-2-yl)-4-fluorobiphenyl-3-carboxylic Acid], the EC50 on rat mGlu2 receptor (setting [1]), at rat mGlu2 receptor (setting [2]) and at rat mGlu3 receptor was more than 10 µM throughout.

As for `Cc1ccc(-c2cc(C(F)(F)F)nc(-c3cccc(-c4ccc(F)c(C(=O)O)c4)c3)n2)s1` [Example 112, 4-Fluoro-3′-(4-(5-methylthiophen-2-yl)-6-(trifluoromethyl)pyrimidin-2-yl)biphenyl-3-carboxylic Acid], the results for the EC50 at rat mGlu2 receptor (setting [1]), at rat mGlu2 receptor (setting [2]) and at rat mGlu3 receptor were 3.19 µM, 0.75 µM and 3.14 µM, respectively.

In the case of `O=C(O)c1cc(F)cc(-c2cccc(-c3nc(-c4ccoc4)cc(C(F)(F)F)n3)c2)c1` [Example 113, 5-Fluoro-3′-(4-(furan-3-yl)-6-(trifluoromethyl)pyrimidin-2-yl)biphenyl-3-carboxylic Acid], the results for the EC50 at rat mGlu2 receptor (setting [1]), on rat mGlu2 receptor (setting [2]) and at rat mGlu3 receptor were 0.4 µM, 0.23 µM and 1.15 µM, respectively.

On to `O=C(O)c1cccc(-c2cccc(-c3nc(-c4ccoc4)cc(C(F)(F)F)n3)c2)c1` [Example 115, 3′-(4-(Furan-3-yl)-6-(trifluoromethyl)pyrimidin-2-yl)biphenyl-3-carboxylic acid], for which the EC50 at rat mGlu2 receptor (setting [1]) came out at 0.28 µM; on rat mGlu2 receptor (setting [2]) it was 0.12 µM; on rat mGlu3 receptor, 0.96 µM.

`O=C(O)c1cc(-c2cccc(-c3nc(-c4cccnc4)cc(C(F)(F)F)n3)c2)ccc1F` [Example 116, 4-Fluoro-3′-(4-(pyridin-3-yl)-6-(trifluoromethyl)pyrimidin-2-yl)biphenyl-3-carboxylic Acid]: the figures for the EC50 at rat mGlu2 receptor (setting [1]), on rat mGlu2 receptor (setting [2]) and on rat mGlu3 receptor were 2.11 µM, 0.27 µM and 8.58 µM, respectively.

As to `Cc1cc(-c2ccoc2)nc(-c2cccc(-c3ccc(F)c(C(=O)O)c3)c2)n1` [Example 117, 4-Fluoro-3′-(4-(furan-3-yl)-6-methylpyrimidin-2-yl)biphenyl-3-carboxylic acid], the EC50 worked out at 0.08 µM on rat mGlu2 receptor (setting [1]), 0.07 µM on rat mGlu2 receptor (setting [2]) and 0.28 µM on rat mGlu3 receptor.
